Results taken from article PMC2873862 (Journal of neuroimmunology, 2009).
pIC50: −log10 of the molar value.

Experiments:
Assay in all cases: radioligand displacement
[1] = target: Angiotensin AT1 (Homo sapiens, UniProt P30556); type: binding
[2] = target: Neuropeptide Y1 (Homo sapiens, UniProt P25929); type: binding
[3] = target: Chemokine CCR1 (Homo sapiens, UniProt P32246); type: binding
[4] = target: Serotonin 5-HT1A (Homo sapiens, UniProt P08908); type: binding
[5] = target: Serotonin 5-HT1_5A (Homo sapiens, UniProt P47898); type: binding
[6] = target: Adrenergic α1D (Homo sapiens, UniProt P25100); type: binding
[7] = target: Bradykinin B1 (Homo sapiens, UniProt P46663); type: binding; settings: vs [3H]des Arg10 Kallidin; bound from single concentration […]
[8] = target: Cannabinoid CB2 (Homo sapiens, UniProt P34972); type: binding
[9] = target: Endothelin ETA (Homo sapiens, UniProt P25101); type: binding
[10] = target: Muscarinic M3 (Homo sapiens, UniProt P20309); type: binding
[11] = target: Tachykinin NK1 (Homo sapiens, UniProt P25103); type: binding
[12] = target: Opiate σ(OP1) (Homo sapiens, UniProt P41143); type: binding
[13] = target: Histamine H1 (Homo sapiens, UniProt P35367); type: binding
[14] = target: Neurotensin NT1 (Homo sapiens, UniProt P30989); type: binding
[15] = target: Adrenergic β1 (Homo sapiens, UniProt P08588); type: binding
[16] = target: Chemokine CCR5 (Homo sapiens, UniProt P51681); type: binding
[17] = target: Estrogen ERβ (Homo sapiens, UniProt Q92731)
[18] = target: Dopamine D2L (Homo sapiens, UniProt P14416); type: binding
[19] = target: Dopamine D3 (Homo sapiens, UniProt P35462); type: binding
[20] = target: Adenosine A1 (Homo sapiens, UniProt P30542); type: binding
[21] = target: Leukotriene CysLT1 (Homo sapiens, UniProt Q9Y271); type: binding
[22] = target: Muscarinic M1 (Homo sapiens, UniProt P11229); type: binding
[23] = target: Somatostatin sst1 (Homo sapiens, UniProt P30872)

Measured: pIC50

Cannabinoid CB2, sequence (P34972 whole entry): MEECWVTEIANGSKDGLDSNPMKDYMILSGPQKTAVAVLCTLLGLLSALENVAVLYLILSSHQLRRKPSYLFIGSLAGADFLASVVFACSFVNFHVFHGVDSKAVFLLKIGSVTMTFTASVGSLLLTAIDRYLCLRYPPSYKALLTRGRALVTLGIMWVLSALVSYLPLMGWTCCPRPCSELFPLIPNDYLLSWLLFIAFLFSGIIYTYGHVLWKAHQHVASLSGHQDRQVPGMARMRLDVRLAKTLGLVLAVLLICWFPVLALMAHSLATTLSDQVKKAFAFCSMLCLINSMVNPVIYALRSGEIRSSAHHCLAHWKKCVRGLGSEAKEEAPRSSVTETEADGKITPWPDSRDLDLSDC
Somatostatin sst1, sequence (P30872 whole entry): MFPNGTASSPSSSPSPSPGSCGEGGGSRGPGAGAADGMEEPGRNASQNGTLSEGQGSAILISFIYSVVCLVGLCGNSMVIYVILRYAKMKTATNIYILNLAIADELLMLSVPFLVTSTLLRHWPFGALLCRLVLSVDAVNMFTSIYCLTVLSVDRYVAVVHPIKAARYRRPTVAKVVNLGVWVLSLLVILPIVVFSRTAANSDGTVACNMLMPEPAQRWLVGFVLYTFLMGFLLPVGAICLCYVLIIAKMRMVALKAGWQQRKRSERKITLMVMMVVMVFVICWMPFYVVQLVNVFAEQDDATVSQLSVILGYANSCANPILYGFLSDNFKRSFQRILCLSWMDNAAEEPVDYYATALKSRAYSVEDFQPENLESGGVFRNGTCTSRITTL
Tachykinin NK1, sequence (P25103 whole entry): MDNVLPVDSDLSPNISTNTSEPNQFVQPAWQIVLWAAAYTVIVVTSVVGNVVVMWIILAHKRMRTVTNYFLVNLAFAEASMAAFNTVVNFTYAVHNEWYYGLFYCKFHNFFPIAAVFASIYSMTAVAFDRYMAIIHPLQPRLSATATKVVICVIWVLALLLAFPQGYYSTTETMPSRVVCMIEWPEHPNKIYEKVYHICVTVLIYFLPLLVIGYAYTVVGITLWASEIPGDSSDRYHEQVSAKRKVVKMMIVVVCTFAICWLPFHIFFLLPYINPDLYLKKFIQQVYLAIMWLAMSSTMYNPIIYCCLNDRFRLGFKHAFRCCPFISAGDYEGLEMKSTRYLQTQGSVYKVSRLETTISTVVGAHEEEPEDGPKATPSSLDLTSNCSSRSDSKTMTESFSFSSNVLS
Neuropeptide Y1, sequence (P25929 whole entry): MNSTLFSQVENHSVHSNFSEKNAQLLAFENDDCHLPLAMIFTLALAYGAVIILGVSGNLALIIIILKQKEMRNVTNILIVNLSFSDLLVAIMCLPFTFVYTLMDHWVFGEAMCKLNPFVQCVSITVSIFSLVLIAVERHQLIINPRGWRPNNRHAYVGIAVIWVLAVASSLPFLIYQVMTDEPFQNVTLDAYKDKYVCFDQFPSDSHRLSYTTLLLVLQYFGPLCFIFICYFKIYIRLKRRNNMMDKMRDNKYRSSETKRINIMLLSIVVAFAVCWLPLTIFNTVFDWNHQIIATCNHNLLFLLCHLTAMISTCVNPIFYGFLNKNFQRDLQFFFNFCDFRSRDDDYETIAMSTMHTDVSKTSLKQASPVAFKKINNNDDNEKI
Dopamine D2L, sequence (P14416 whole entry): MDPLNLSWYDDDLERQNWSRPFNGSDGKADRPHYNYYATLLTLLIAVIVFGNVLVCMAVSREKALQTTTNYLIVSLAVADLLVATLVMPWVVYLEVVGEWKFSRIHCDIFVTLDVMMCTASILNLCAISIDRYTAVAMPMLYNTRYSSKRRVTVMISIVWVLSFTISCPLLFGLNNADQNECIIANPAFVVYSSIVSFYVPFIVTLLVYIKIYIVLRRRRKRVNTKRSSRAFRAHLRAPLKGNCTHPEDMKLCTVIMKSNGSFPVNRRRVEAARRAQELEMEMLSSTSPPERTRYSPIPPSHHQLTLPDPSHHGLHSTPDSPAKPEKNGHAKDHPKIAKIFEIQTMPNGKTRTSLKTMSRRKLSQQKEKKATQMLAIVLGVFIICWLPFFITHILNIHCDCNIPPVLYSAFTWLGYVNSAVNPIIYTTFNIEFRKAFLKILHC
Dopamine D3, sequence (P35462 whole entry): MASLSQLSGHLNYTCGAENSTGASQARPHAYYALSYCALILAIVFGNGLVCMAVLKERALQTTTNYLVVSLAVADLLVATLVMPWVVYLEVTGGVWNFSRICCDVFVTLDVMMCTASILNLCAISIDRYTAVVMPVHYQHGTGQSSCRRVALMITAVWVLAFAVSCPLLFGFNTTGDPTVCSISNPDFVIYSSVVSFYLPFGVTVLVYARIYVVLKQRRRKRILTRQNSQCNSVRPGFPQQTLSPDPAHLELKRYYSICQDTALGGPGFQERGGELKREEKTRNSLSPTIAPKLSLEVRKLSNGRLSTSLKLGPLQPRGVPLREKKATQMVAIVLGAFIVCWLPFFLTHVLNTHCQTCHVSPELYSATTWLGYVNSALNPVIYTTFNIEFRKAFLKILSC
Serotonin 5-HT1_5A, sequence (P47898 whole entry): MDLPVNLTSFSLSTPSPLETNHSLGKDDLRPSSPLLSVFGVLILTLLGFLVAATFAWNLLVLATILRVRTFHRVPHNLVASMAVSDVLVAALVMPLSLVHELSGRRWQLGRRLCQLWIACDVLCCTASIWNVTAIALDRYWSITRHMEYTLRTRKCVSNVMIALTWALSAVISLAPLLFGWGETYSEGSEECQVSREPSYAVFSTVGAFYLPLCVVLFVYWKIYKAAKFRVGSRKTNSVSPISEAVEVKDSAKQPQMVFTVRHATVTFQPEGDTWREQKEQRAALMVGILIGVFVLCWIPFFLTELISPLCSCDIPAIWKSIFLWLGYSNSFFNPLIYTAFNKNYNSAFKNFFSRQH
Adrenergic β1, sequence (P08588 whole entry): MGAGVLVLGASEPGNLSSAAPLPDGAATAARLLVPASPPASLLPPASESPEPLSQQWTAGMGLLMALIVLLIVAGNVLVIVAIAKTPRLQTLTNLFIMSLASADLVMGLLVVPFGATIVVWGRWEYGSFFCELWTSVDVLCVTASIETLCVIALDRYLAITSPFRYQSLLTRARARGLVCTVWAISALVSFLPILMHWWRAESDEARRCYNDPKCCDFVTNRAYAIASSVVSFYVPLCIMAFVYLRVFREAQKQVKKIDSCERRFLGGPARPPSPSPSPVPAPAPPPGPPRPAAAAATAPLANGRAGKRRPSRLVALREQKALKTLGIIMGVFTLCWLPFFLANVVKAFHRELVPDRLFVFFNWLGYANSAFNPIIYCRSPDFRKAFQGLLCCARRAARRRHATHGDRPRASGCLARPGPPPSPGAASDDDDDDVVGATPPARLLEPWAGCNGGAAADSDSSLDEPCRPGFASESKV
Muscarinic M3, sequence (P20309 whole entry): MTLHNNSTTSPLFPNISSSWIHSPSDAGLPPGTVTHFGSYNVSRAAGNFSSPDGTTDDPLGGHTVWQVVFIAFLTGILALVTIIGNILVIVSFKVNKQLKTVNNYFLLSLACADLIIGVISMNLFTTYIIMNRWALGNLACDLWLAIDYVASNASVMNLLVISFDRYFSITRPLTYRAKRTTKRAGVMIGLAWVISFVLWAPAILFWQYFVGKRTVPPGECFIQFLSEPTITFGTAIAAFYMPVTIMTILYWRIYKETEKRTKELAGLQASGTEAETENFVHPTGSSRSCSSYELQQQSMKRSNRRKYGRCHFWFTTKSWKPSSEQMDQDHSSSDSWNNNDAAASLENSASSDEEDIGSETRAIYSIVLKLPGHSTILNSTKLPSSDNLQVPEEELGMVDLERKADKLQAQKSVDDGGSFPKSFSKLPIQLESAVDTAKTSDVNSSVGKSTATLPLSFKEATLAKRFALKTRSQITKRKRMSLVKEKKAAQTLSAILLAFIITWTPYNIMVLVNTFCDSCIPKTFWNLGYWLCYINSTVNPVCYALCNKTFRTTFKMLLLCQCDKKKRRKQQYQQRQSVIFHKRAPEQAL
Serotonin 5-HT1A, sequence (P08908 whole entry): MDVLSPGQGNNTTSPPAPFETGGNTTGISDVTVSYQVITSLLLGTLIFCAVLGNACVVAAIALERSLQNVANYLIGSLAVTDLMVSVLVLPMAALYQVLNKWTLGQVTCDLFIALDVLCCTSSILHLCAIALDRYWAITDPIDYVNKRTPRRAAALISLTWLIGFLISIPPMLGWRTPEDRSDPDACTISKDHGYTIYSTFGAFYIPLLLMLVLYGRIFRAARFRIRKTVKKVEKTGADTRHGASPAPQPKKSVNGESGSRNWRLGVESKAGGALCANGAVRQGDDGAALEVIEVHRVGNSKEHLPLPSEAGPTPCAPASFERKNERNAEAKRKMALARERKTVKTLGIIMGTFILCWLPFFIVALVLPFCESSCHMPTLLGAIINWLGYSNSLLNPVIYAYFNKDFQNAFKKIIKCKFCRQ
Neurotensin NT1, sequence (P30989 whole entry): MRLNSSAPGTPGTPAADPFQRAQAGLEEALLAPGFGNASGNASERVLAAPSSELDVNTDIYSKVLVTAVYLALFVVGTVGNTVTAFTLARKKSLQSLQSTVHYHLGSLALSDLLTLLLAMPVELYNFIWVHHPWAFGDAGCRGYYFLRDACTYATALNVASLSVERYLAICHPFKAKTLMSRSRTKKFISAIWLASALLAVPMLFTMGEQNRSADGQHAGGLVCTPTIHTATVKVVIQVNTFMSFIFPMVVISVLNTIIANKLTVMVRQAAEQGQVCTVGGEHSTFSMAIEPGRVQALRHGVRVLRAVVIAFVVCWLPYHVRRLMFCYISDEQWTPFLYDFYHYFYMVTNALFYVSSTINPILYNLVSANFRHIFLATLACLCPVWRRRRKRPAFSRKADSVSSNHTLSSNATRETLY

CC(=O)c1ccc2c(c1)C1C=CCC1C(c1cc3c(cc1Br)OCO3)N2 (centres unmarked) [G-1, 1-[4-(6-bromobenzo[1,3]dioxol-5-yl)-3a,4,5,9b-tetrahydro-3H-cyclopenta[c]quinolin-8-yl]-ethanone]
< 5.00: all assays above
